# Experimental data: PubChem BioAssay AID1996
# Conditions: buffer; pH 7.4; 200.0 µM
row,Compound,solubility kinetic
1,CC(=O)C1=C(O)C(=O)N(c2ccccn2)C1c1ccc(C)cc1 (stereo unspecified),> 46.3 µg/mL
2,CC(C)(C)C(=O)Nc1ccc(N2CCN(S(C)(=O)=O)CC2)cc1,17.6 µg/mL
3,O=C1CN(C(=S)Nc2ccc(OC(F)F)cc2)CCN1,> 45.2 µg/mL
4,COc1ccccc1NC(=S)N(Cc1cccnc1)Cc1ccco1,48.3 µg/mL
5,O=C(NCC(=O)N1CCCC1)c1ccc(Br)cc1,> 46.7 µg/mL
6,Cc1ccc(Nc2nc(C(=O)NCC3CCCO3)cs2)cc1 (stereo unspecified),9 µg/mL
7,O=C1OC(C(=O)NCc2ccccc2)Cc2ccccc21 (stereo unspecified),39 µg/mL
8,Cc1cc(-c2onc(C)c2C(=O)Oc2ccc(Cl)cc2)no1,0.5 µg/mL
9,CN(C)CCOC(=O)C(c1ccccc1)C1(O)CCCC1.Cl (stereo unspecified),> 49.2 µg/mL
10,CC(=O)N[C@@H](CS)C(=O)O,> 24.5 µg/mL
11,CCOc1ccc(C(=O)NCC(=O)N2CCC(C)CC2)cc1OCC,> 52.3 µg/mL
12,CCOc1cccc(/C=C/c2ccc3cccc(O)c3n2)c1O,< 0.7 µg/mL
13,C=CCOc1c(Br)cc(/C=C2/C(=O)ON=C2C)cc1OC,44.3 µg/mL
14,O=C(NC(=O)c1ccccc1)Nc1ccc(Cl)cn1,< 0.2 µg/mL
15,O=C(NCc1ccco1)C(=O)N1CCCC1,> 33.3 µg/mL
16,O=C(O)c1ccc(Cn2ccc3ccccc32)o1,> 36.2 µg/mL
17,NC(=O)c1ccc(NC(=O)COC(=O)/C=C/c2ccc(Br)o2)cc1,7.3 µg/mL
18,Cc1ccc(/C(O)=C2\C(=O)C(=O)N(CC(C)O)C2c2ccccn2)cc1 (stereo unspecified),> 52.9 µg/mL
19,O=P([O-])(CN1CCCCCC1)C1Cc2ccccc2C1,43.7 µg/mL
20,O=C(CNC(=O)c1ccccc1)OCC(=O)c1cccs1,> 45.5 µg/mL
21,O=C(NCc1ccc(Cl)cc1)N1CCc2ccccc2C1,4.5 µg/mL
22,COc1cccc(CN2CCSCC2)c1OC,24.2 µg/mL

row,Compound,solubility kinetic
1,Cc1[nH]c(=O)[nH]c(=S)c1C(=O)Nc1ccc(Cl)c(Cl)c1,36.9 µg/mL
2,CC(C)c1ccc(Nc2nc(Cl)nc(NCc3ccco3)n2)cc1,0.6 µg/mL
3,CCCCn1c(SCC(=O)N(C)C)nnc1-c1ccncc1,> 47.9 µg/mL
4,COc1ccccc1/C=C1/C(=O)ON=C1C,31.3 µg/mL
5,Cc1ccc(SCC(=O)NCCc2ccc(F)cc2)cc1,13.6 µg/mL
6,Nc1ncnc(Nc2c(F)cccc2F)n1,> 33.5 µg/mL
7,CN(C)c1cc(-c2ccc(Cl)cc2)oc(=O)c1Cl,1.7 µg/mL
8,Cc1ccc(NC(=O)C(C)N2CCc3ccccc3C2)cc1 (stereo unspecified),31.8 µg/mL
9,Cc1cccc(NC(=S)N2CCN(c3ccccn3)CC2)c1,6.7 µg/mL
10,O=C(CCNS(=O)(=O)c1ccc(F)c(F)c1)NCCN1CCOCC1,> 56.6 µg/mL
11,Cc1cc2c(Nc3ccc(O)cc3)ncnc2s1.Cl,> 44.1 µg/mL
12,Cc1cccc(N(C)S(=O)(=O)c2ccc3c(c2)NC(=O)CC(=O)N3)c1,> 53.9 µg/mL
13,O=C(Nc1nc(-c2ccncc2)cs1)c1ccc(F)cc1,< 0.2 µg/mL
14,O=C(NC1CCCCC1)C(=S)N1CCCC1,> 36.1 µg/mL
15,C/C(=N/O)c1no[n+]([O-])c1/C(C)=N\O,> 30 µg/mL
16,CC(C)Oc1ccc(C2CC(=O)N(C)C2=O)cc1 (stereo unspecified),> 37.1 µg/mL
17,COC(=O)c1ccc(NC(=O)N(c2ccccc2)c2ccccc2)cc1,0.7 µg/mL
18,O=C(Cn1cnc([N+](=O)[O-])c1)Nc1ccccc1C(F)(F)F,39 µg/mL
19,Cc1cc(C)cc(-c2nnc(SCC(=O)NC3CC3)o2)c1,> 45.5 µg/mL
20,COc1ccc(S(=O)(=O)Nc2cccnc2)cc1,> 39.6 µg/mL
21,Cn1ccnc1SCC(=O)c1ccc2ccccc2c1,35.8 µg/mL
22,CCOC(=O)N1CCN(C(=O)c2ccc(OC)cc2)CC1,> 43.9 µg/mL

row,Compound,solubility kinetic
1,COc1ccc(NC(=O)CS(=O)c2ccc(F)cc2)cc1 (stereo unspecified),> 46.1 µg/mL
2,O=C1Nc2c(ccc(Cl)c2Cl)C(=O)C1(F)c1ccccc1 (stereo unspecified),< 0.7 µg/mL
3,Cn1cccc1C(=O)OCC(=O)c1ccc(Br)s1,7.9 µg/mL
4,CCn1c(=O)c(C(=O)Nc2ccccc2)c(O)c2ccccc21,< 0.3 µg/mL
5,COC(=O)/C(C#N)=C\c1c(OC)[nH]c2ccccc12,1.1 µg/mL
6,O=S(=O)(c1ccccc1)N(CC(O)CN1CCCC1)c1ccccc1 (stereo unspecified),50 µg/mL
7,Cc1c(NS(=O)(=O)c2ccc(N)cc2)c(=O)n(-c2ccccc2)n1C,> 53.8 µg/mL
8,CC(C)CNC(=O)c1ccc2c(c1)C(=O)N(Cc1ccco1)C2=O,25.9 µg/mL
9,Cc1ncc([N+](=O)[O-])n1CC(=O)Nc1ccccc1F,> 41.7 µg/mL
10,Cc1cc(C)c2c(CN3CCOCC3)cc(=O)oc2c1,37.2 µg/mL
11,CC1CCCCN1C(=O)CSc1nc2ncccc2[nH]1 (stereo unspecified),> 43.6 µg/mL
12,CNC(=O)c1c(NC(=O)c2ccc3ncsc3c2)sc(C)c1C,2 µg/mL
13,O=C(Nc1csc(Cl)c1)c1ccccc1,6.2 µg/mL
14,O=C(NC1CCCCNC1=O)c1ccccc1 (stereo unspecified),> 34.8 µg/mL
15,COc1cccc(NC(=O)Cn2cc(C=O)c3ccccc32)c1,0.5 µg/mL
16,O=C(O)CC(NS(=O)(=O)c1ccc2c(c1)OCCO2)c1ccccc1[N+](=O)[O-] (stereo unspecified),> 61.3 µg/mL
17,O=S(=O)(Nc1ccccc1O)c1ccc(Cl)nc1,35.6 µg/mL
18,Cc1cc(C)c(C#N)c(SC(C(=O)NC(C)(C)C)c2ccccc2)n1 (stereo unspecified),< 0.3 µg/mL
19,O=C(O)/C=C/c1ccc(S(=O)(=O)NCc2cccnc2)cc1,> 47.8 µg/mL
20,O=C(CN1C(=O)COc2ccccc21)NCCN1CCCC1,> 45.5 µg/mL
21,COc1ccc(NC(=O)COC(=O)CCc2ccc(S(=O)(=O)N3CCOCC3)cc2)cc1OC,62 µg/mL
22,COc1ccc(N(CC(=O)NCCSc2ccccc2)S(=O)(=O)c2ccccc2)c(OC)c1,3.6 µg/mL

row,Compound,solubility kinetic
1,C=CCn1c(N2CCCC2)nc2c1c(=O)n(C)c(=O)n2C,> 43.4 µg/mL
2,N#C/C(=C(/O)C(Cl)(Cl)Cl)c1nc2ccccc2[nH]1,12.1 µg/mL
3,O=C(Nc1nccs1)c1cncc(Br)c1,20.4 µg/mL
4,COc1ccc(C(C)=O)cc1COC(=O)CNC(=O)C1CCCCC1,> 52.1 µg/mL
5,COc1ccccc1-c1noc(-c2ccccc2C(=O)NCc2ccco2)n1,49.4 µg/mL
6,COc1cccc(/C=C(/C(=O)OCC(N)=O)c2ccccc2)c1,> 46.7 µg/mL
7,CN(C)CCn1c(=S)[nH]c2ccc(Cl)cc2c1=O,> 42.6 µg/mL
8,CC(OC(=O)c1nsc(Cl)c1Cl)C(=O)NC1CCCCC1 (stereo unspecified),31.6 µg/mL
9,Clc1ccc(-c2csc(N3CCCCCC3)n2)cc1,< 0.3 µg/mL
10,O=C(NC1(C(F)(F)F)NC(=O)N(C2CCCCC2)C1=O)C1CC1 (stereo unspecified),> 50 µg/mL
11,O=C1CCCN1CCCNc1ncccc1[N+](=O)[O-],> 39.6 µg/mL
12,FC(F)(F)c1cc(N2CCNCC2)c2ccccc2n1,41.6 µg/mL
13,COc1ccc(C(=O)NCCNC(=O)c2ccc(OC)cc2)cc1,2.9 µg/mL
14,C=CCOc1ccc(/C=C2/C(=O)ON=C2C)cc1OC,26.2 µg/mL
15,CC(C)(C)NS(=O)(=O)c1ccc(NC(=O)CS(=O)(=O)Cc2ccccc2)cc1,> 63.7 µg/mL
16,COc1cccc(N2CCN(C(=S)Nc3ccccc3)CC2)c1,2.9 µg/mL
17,COc1cc2ccccc2cc1C(=O)Nc1ccc(O)cc1,0.8 µg/mL
18,CC1(C)CC2CC(C)(CN2S(=O)(=O)c2ccccc2[N+](=O)[O-])C1 (stereo unspecified),2.4 µg/mL
19,COc1ccccc1C(=O)Nc1ccc(Nc2ccccc2)cc1,< 0.3 µg/mL
20,COc1ccc2[nH]c3c(c2c1)CC(C)NC3=O (stereo unspecified),33.3 µg/mL
